Where two headings read alike, the source gives them in different places.
Assays:
[1] = target: ERK2 (Homo sapiens, UniProt P28482); test: ERK2 inhibition assay (spectrophotometric coupled-enzyme assay); format: biochemical
Protocol: The IC50 was evaluated from the rate data as a function of inhibitor concentration. […] The compound numbers correspond to the compound numbers in Table 1.

[2] = target: T1, GSK-3β (AA 1–420) (Homo sapiens, UniProt P49841); test: GSK-3 inhibition assay (coupled enzyme system); format: biochemical; conditions: read-out: GSK3 Inhibitory Activity (Ki class)
T1 construct: GSK-3β (AA 1–420)
Protocol: Final substrate concentrations in the assay were 20 μM ATP (Sigma Chemicals, St Louis, Mo.) and 300 μM peptide (HSSPHQS(PO3H2)EDEEE, American Peptide, Sunnyvale, Calif.). Reactions were carried out at 30° C. and 20 nM GSK-3β. Final concentrations of the components of the coupled enzyme system were 2.5 mM phosphoenolpyruvate, 300 μM NADH, 30 μg/ml pyruvate kinase and 10 μg/ml lactate dehydrogenase.
An assay stock buffer solution was prepared containing all of the reagents listed above with the exception of ATP and the test compound of interest. The assay stock buffer'solution (175 μl) was incubated in a 96 well plate with 5 μl of the test compound of interest at final concentrations spanning 0.002 μM to 30 μM at 30° C. for 10 min. […] The reaction was initiated by the addition of 20 μl of ATP (final concentration 20 μM). Rates of reaction were obtained using a Molecular Devices Spectramax plate reader (Sunnyvale, Calif.) over 10 min at 30° C. The Ki values were determined from the rate data as a function of inhibitor concentration.
The compound numbers correspond to the compound numbers in Table 1.

[3] = read-out: ERK2 Inhibitory Activity (Ki class D-F)

T1 sequence (P49841 whole entry, species assumed, the tested form may be a part): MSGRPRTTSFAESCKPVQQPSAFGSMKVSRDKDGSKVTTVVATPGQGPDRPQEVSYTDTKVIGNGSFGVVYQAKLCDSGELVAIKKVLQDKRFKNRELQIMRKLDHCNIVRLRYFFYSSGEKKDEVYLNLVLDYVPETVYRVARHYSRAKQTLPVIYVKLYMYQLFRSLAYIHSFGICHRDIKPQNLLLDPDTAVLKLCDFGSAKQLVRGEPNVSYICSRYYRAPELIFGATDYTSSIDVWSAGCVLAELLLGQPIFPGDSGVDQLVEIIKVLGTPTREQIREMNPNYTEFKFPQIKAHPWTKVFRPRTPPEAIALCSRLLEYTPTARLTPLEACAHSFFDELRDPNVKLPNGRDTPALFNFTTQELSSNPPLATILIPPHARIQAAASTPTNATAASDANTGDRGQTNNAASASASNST
ERK2, sequence (P28482 whole entry): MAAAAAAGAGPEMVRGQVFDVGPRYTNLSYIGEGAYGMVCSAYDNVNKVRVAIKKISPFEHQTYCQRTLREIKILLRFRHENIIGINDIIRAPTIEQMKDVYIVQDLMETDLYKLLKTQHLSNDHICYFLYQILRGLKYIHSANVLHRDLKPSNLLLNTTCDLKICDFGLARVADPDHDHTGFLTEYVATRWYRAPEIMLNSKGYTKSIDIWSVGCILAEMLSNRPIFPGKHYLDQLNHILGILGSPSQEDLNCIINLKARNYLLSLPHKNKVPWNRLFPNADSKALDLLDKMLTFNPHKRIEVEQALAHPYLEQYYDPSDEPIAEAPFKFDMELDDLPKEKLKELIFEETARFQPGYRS

Compound | Ki [1, 3] [µM] | Ki [2] [µM] | Ki ([1]; ERK2 Inhibitory Activity (Ki class D-F)) [µM]
Cc1ccc(Nc2ncc(C)c(-c3c[nH]c(C(=O)NC(CO)c4ccccc4)c3)n2)cc1C (stereo not shown) [III-a-151, 4-[2-(3,4-Dimethyl-phenylamino)-5-methyl-pyrimidin-4-yl]-1H-pyrrole-2-carboxylic acid (2-hydroxy-1-phenyl-ethyl)-amide] | < 0.1 | < 0.1 | 
Cc1cnc(NC(CO)c2ccccc2)nc1-c1c[nH]c(C(=O)NC(CO)c2ccccc2)c1 (stereo not shown) [III-a-166, 4-[2-(2-Hydroxy-1-phenyl-ethylamino)-5-methyl-pyrimidin-4-yl]-1H-pyrrole-2-carboxylic acid (2-hydroxy-1-phenyl-ethyl)-amide] |  | > 1 | 0.1 to 1
CCNc1ncc(C)c(-c2c[nH]c(C(=O)NC(CCO)c3ccccc3)c2)n1 (stereo not shown) [III-a-173, 4-(2-Ethylamino-5-methyl-pyrimidin-4-yl)-1H-pyrrole-2-carboxylic acid (3-hydroxy-1-phenyl-propyl)-amide] | 0.1 to 1 | > 1 | 
Cc1cnc(NCCO)nc1-c1c[nH]c(C(=O)NC(CO)c2ccccc2)c1 (stereo not shown) [III-a-175, 4-[2-(2-Hydroxy-ethylamino)-5-methyl-pyrimidin-4-yl]-1H-pyrrole-2-carboxylic acid (2-hydroxy-1-phenyl-ethyl)-amide] | < 0.1 | 0.1 to 1 | 
Cc1cnc(NC(C)CO)nc1-c1c[nH]c(C(=O)NC(CO)c2ccccc2)c1 (stereo not shown) [III-a-176, 4-[2-(2-Hydroxy-1-methyl-ethylamino)-5-methyl-pyrimidin-4-yl]-1H-pyrrole-2-carboxylic acid (2-hydroxy-1-phenyl-ethyl)-amide] | < 0.1 | < 0.1 | 
Cc1cnc(NC2CCCCC2O)nc1-c1c[nH]c(C(=O)NC(CO)c2ccccc2)c1 (stereo not shown) [III-a-179, 4-[2-(2-Hydroxy-cyclohexylamino)-5-methyl-pyrimidin-4-yl]-1H-pyrrole-2-carboxylic acid (2-hydroxy-1-phenyl-ethyl)-amide] | < 0.1 | < 0.1 | 
CCN(C(=O)c1cc(-c2ccnc(N)n2)c[nH]1)C(C)C(O)c1ccccc1 (stereo not shown) [III-a-181, 4-(2-Amino-pyrimidin-4-yl)-1H-pyrrole-2-carboxylic acid (2-hydroxy-1-methyl-2-phenyl-ethyl)-ethyl-amide] |  | > 1 | 
CCNc1ncc(C)c(-c2c[nH]c(C(=O)NC(C(=O)OC)c3ccccc3)c2)n1 (stereo not shown) [III-a-184, {[4-(2-Ethylamino-5-methyl-pyrimidin-4-yl)-1H-pyrrole-2-carbonyl]-amino}-phenyl-acetic acid methyl ester] | 0.1 to 1 | > 1 | 
CCNc1ncc(COC)c(-c2c[nH]c(C(=O)NC(CO)c3ccccc3)c2)n1 (stereo not shown) [III-a-187, 4-(2-Ethylamino-5-methoxymethyl-pyrimidin-4-yl)-1H-pyrrole-2-carboxylic acid (2-hydroxy-1-phenyl-ethyl)-amide] |  | > 1 | 
CCNc1ncc(C)c(-c2c[nH]c(C(=O)NC(CO)c3cccnc3)c2)n1 (stereo not shown) [III-a-188, 4-(2-Ethylamino-5-methyl-pyrimidin-4-yl)-1H-pyrrole-2-carboxylic acid (2-hydroxy-1-pyridin-3-yl-ethyl)-amide] | 0.1 to 1 | > 1 | 
CCNc1ncc(CO)c(-c2c[nH]c(C(=O)NC(CO)c3ccccc3)c2)n1 (stereo not shown) [III-a-189, 4-(2-Ethylamino-5-hydroxymethyl-pyrimidin-4-yl)-1H-pyrrole-2-carboxylic acid (2-hydroxy-1-phenyl-ethyl)-amide] | < 0.1 | > 1 | 

Now from value to molecule, other results behind:

Ki [1, 3] [µM] | Ki [2] [µM] | Compound | Ki ([1]; ERK2 Inhibitory Activity (Ki class D-F)) [µM]
< 0.1 | > 1 | CNc1ncc(C)c(-c2c[nH]c(C(=O)NC(CO)c3ccc(F)c(Cl)c3)c2)n1 (stereo not shown) [III-a-134, 4-(5-Methyl-2-methylamino-pyrimidin-4-yl)-1H-pyrrole-2-carboxylic acid [1-(3-chloro-4-fluoro-phenyl)-2-hydroxy-ethyl]-amide] | 
0.1 to 1 | > 1 | O=C(NC(CO)c1ccccc1)c1cc(-c2nc(Nc3ccccc3)ncc2C2CC2)c[nH]1 (stereo not shown) [III-a-144, 4-(5-Cyclopropyl-2-phenylamino-pyrimidin-4-yl)-1H-pyrrole-2-carboxylic acid (2-hydroxy-1-phenyl-ethyl)-amide] | 
< 0.1 | < 0.1 | Cc1ccc(C(CO)NC(=O)c2cc(-c3nc(Nc4ccccc4)ncc3C)c[nH]2)cc1F (stereo not shown) [III-a-145, 4-(5-Methyl-2-phenylamino-pyrimidin-4-yl)-1H-pyrrole-2-carboxylic acid [1-(3-fluoro-4-methyl-phenyl)-2-hydroxy-ethyl]-amide] | 
< 0.1 | < 0.1 | Cc1ccc(C(CO)NC(=O)c2cc(-c3nc(Nc4cccc(F)c4)ncc3C)c[nH]2)cc1F (stereo not shown) [III-a-147, 4-[2-(3-Fluoro-phenylamino)-5-methyl-pyrimidin-4-yl]-1H-pyrrole-2-carboxylic acid [1-(3-fluoro-4-methyl-phenyl)-2-hydroxy-ethyl]-amide] | 
< 0.1 | < 0.1 | Cc1cnc(NC(C)C)nc1-c1c[nH]c(C(=O)NC(CO)c2ccccc2)c1 (stereo not shown) [III-a-153, 4-(2-Isopropylamino-5-methyl-pyrimidin-4-yl)-1H-pyrrole-2-carboxylic acid (2-hydroxy-1-phenyl-ethyl)-amide] | 
< 0.1 | < 0.1 | Cc1cnc(NCC(F)(F)F)nc1-c1c[nH]c(C(=O)NC(CO)c2ccccc2)c1 (stereo not shown) [III-a-154, 4-[5-Methyl-2-(2,2,2-trifluoro-ethylamino)-pyrimidin-4-yl]-1H-pyrrole-2-carboxylic acid (2-hydroxy-1-phenyl-ethyl)-amide] | 
< 0.1 | < 0.1 | Cc1cnc(Nc2ccc(OC(F)(F)F)cc2)nc1-c1c[nH]c(C(=O)NC(CO)c2ccccc2)c1 (stereo not shown) [III-a-157, 4-[5-Methyl-2-(4-trifluoromethoxy-phenylamino)-pyrimidin-4-yl]-1H-pyrrole-2-carboxylic acid (2-hydroxy-1-phenyl-ethyl)-amide] | 
< 0.1 | < 0.1 | Cc1cnc(NCC(C)C)nc1-c1c[nH]c(C(=O)NC(CO)c2ccccc2)c1 (stereo not shown) [III-a-158, 4-(2-Isobutylamino-5-methyl-pyrimidin-4-yl)-1H-pyrrole-2-carboxylic acid (2-hydroxy-1-phenyl-ethyl)-amide] | 
> 1 | > 1 | CCNc1ncc(C)c(-c2c[nH]c(C(=O)NC(CCO)c3ccccc3)c2)n1 (stereo not shown) [III-a-172, 4-(2-Ethylamino-5-methyl-pyrimidin-4-yl)-1H-pyrrole-2-carboxylic acid (3-hydroxy-1-phenyl-propyl)-amide] | 
< 0.1 | 0.1 to 1 | Cc1cnc(NCC(C)O)nc1-c1c[nH]c(C(=O)NC(CO)c2ccccc2)c1 (stereo not shown) [III-a-177, 4-[2-(2-Hydroxy-propylamino)-5-methyl-pyrimidin-4-yl]-1H-pyrrole-2-carboxylic acid (2-hydroxy-1-phenyl-ethyl)-amide] | 
< 0.1 | 0.1 to 1 | Cc1cnc(NCC(C)O)nc1-c1c[nH]c(C(=O)NC(CO)c2ccccc2)c1 (stereo not shown) [III-a-178, 4-[2-(2-Hydroxy-propylamino)-5-methyl-pyrimidin-4-yl]-1H-pyrrole-2-carboxylic acid (2-hydroxy-1-phenyl-ethyl)-amide] | 
0.1 to 1 | 0.1 to 1 | CCNc1ncc(C)c(-c2c[nH]c(C(=O)NC(CO)c3cc(F)cc(C(F)(F)F)c3)c2)n1 (stereo not shown) [III-a-190, 4-(2-Ethylamino-5-methyl-pyrimidin-4-yl)-1H-pyrrole-2-carboxylic acid [1-(3-fluoro-5-trifluoromethyl-phenyl)-2-hydroxy-ethyl]-amide] | 
< 0.1 | 0.1 to 1 | CCNc1ncc(C)c(-c2c[nH]c(C(=O)NC(CO)c3cccc(F)c3)c2)n1 (stereo not shown) [III-a-191, 4-(2-Ethylamino-5-methyl-pyrimidin-4-yl)-1H-pyrrole-2-carboxylic acid [1-(3-fluoro-phenyl)-2-hydroxy-ethyl]-amide] | 
< 0.1 | 0.1 to 1 | Cc1cnc(NC(CO)CC2CC2)nc1-c1c[nH]c(C(=O)NC(CO)c2ccccc2)c1 (stereo not shown) [III-a-193, 4-[2-(2-Cyclopropyl-1-hydroxymethyl-ethylamino)-5-methyl-pyrimidin-4-yl]-1H-pyrrole-2-carboxylic acid (2-hydroxy-1-phenyl-ethyl)-amide] | 
< 0.1 | < 0.1 | Cc1cnc(Nc2cccc(C)c2C)nc1-c1c[nH]c(C(=O)NC(CO)c2ccccc2)c1 (stereo not shown) [III-a-194, 4-[2-(2,3-Dimethyl-phenylamino)-5-methyl-pyrimidin-4-yl]-1H-pyrrole-2-carboxylic acid (2-hydroxy-1-phenyl-ethyl)-amide] | 
 | < 0.1 | Cc1ccccc1Nc1ncc(C)c(-c2c[nH]c(C(=O)NC(CO)c3cccc(Cl)c3)c2)n1 (stereo not shown) [III-a-224, 4-(5-Methyl-2-o-tolylamino-pyrimidin-4-yl)-1H-pyrrole-2-carboxylic acid [1-(3-chloro-phenyl)-2-hydroxy-ethyl]-amide] | 
 | < 0.1 | Cc1cnc(NN2CCOCC2)nc1-c1c[nH]c(C(=O)NC(CO)c2ccccc2)c1 (stereo not shown) [III-a-228, 4-[5-Methyl-2-(morpholin-4-ylamino)-pyrimidin-4-yl]-1H-pyrrole-2-carboxylic acid (2-hydroxy-1-phenyl-ethyl)-amide] | 
